Experimental data reported in article PMC9079959, “Substituted spirooxindole derivatives as potent anticancer agents through inhibition of phosphodiesterase 1” (RSC Advances, 2018).
Where two headings read alike, the source gives them in different places.

Key:
HepG2 cells = assay: MTT cytotoxicity assay, hepatocellular carcinoma HepG2; format: cell-based; settings: for IC50: Homo sapiens, HepG2; for SI (selectivity index): IC50 normal (VERO-B) / IC50 cancer (HepG2)
Procedure: (§1) The cytotoxic activity of the compounds was tested against different mammalian cancer cells, prostate carcinoma cells (PC-3), hepatocellular carcinoma (HepG2) and colon cancer cells (HCT-116). African green monkey kidney cells (Vero-B) were used as normal cells to study the selectivity towards the cancer cells. The cell lines were obtained from the American Type Culture Collection (ATCC). The cells were cultivated at 37 °C and 10% CO2 in DMEM (Lonza, Germany) medium supplemented with 10% fetal bovine serum (Lonza, Germany), 100 IU ml^−1 penicillin and 100 μg ml^−1 streptomycin (Lonza, Germany). […] The spirooxindole derivatives were solubilized in DMSO and stored at −20 °C. The viability of the cells was quantified using 3-(4,5-dimethylthiazol-2-yl)-2,5-diphenyl tetrazolium bromide (MTT), which measures the activity of mitochondrial succinate dehydrogenase in viable cells.[45,46]
(§2) The cells were seeded in 96-well plates at a concentration of 5 × 10^4 cells per ml (100 μl per well). […] DMSO was used as a negative control (0.1%). The cells were incubated for 48 h. After that, 15 μl of MTT (5 mg ml^−1 in PBS) was added to each well and incubated for another 4 h. The formazan crystals were solubilized by 100 μl of acidified SDS solution (10% SDS/0.01 N HCl in PBS). The absorbance was measured after 14 h of incubation at 37 °C and under 5% CO2 at 570 nm by using a BioTek microplate reader. Each experiment was repeated 3 times and a standard deviation was calculated (SD±). […] The growth of the cells was monitored and the images were acquired by Gx microscopes (GXMGXD202 Inverted Microscope) at 10× magnification.

Vero-B cells = assay: MTT cytotoxicity assay, normal cells Vero-B; format: cell-based, African green monkey; settings: 48 h
Procedure: as §1, §2

PC-3 cells = assay: MTT cytotoxicity assay, prostate cancer cell line PC-3; format: cell-based; settings: for SI (selectivity index): IC50 normal (VERO-B) / IC50 cancer (PC-3)
Procedure: as §1, §2

HCT-116 cells = assay: MTT cytotoxicity assay, colorectal cancer cell line HCT-116; format: cell-based; settings: for SI (selectivity index): IC50 normal (VERO-B) / IC50 cancer (HCT-116)
Procedure: as §1, §2

[1] = MTT, 48 h, ± SD of 3 experiments, read-out: HepG2 (IC50)
[2] = MTT, 48 h, read-out: HepG2 (IC50, μg ml^−1)
[3] = Homo sapiens, PC-3, MTT, 48 h, ± SD of 3 experiments, read-out: PC-3 (IC50)
[4] = Homo sapiens, PC-3, MTT, 48 h, read-out: PC-3 (IC50, μg ml^−1)
[5] = Homo sapiens, HCT-116, MTT, 48 h, ± SD of 3 experiments, read-out: HCT-116 (IC50)
[6] = Homo sapiens, HCT-116, MTT, 48 h, read-out: HCT-116 (IC50, μg ml^−1)

Compound | IC50 (HepG2 cells; [1]) | IC50 (HepG2 cells; [2]) | SI (selectivity index) (HepG2 cells) | IC50 (Vero-B cells; Chlorocebus sabaeus, Vero B) | melting point | IC50 (PC-3 cells; [3]) | IC50 (PC-3 cells; [4]) | SI (selectivity index) (PC-3 cells) | IC50 (HCT-116 cells; [5]) | IC50 (HCT-116 cells; [6]) | SI (selectivity index) (HCT-116 cells) | HepG2 (IC50, μg ml^−1) (HepG2 cells; MTT, 48 h) | IC50 (Vero-B cells) | PC-3 (IC50, μg ml^−1) (PC-3 cells; MTT, 48 h) | IC50 (PC-3 cells; MTT, 48 h, ± SD of 3 experiments, read-out: PC-3 (IC50)) | HCT-116 (IC50, μg ml^−1) (HCT-116 cells; MTT, 48 h) | IC50 (HCT-116 cells; MTT, 48 h, ± SD of 3 experiments, read-out: HCT-116 (IC50))
Cc1ccc(C2[C@@H](C(=O)c3c[nH]c4ccccc34)[C@]3(C(=O)Nc4ccccc43)N3CCC[C@@H]23)cc1 (stereo partly drawn) [4b, (2′R,3S,7a′S)-2′-(1H-Indole-3-carbonyl)-1′-(p-tolyl)-1′,2′,5′,6′,7′,7a′-hexahydrospiro[indoline-3,3′-pyrrolizin]-2-one] | 11.8 ± 2 µM | 5.4 µg/mL | 2.2 | 26 µM | 174 to 176 °C | 16.3 ± 2 µM | 7.5 µg/mL | 1.6 | 21 ± 2 µM | 9.7 µg/mL | 1.2 | – | – | – | – | – | –
O=C(c1c[nH]c2ccccc12)[C@@H]1C(c2ccc(Cl)cc2)[C@@H]2CCCN2[C@@]12C(=O)Nc1ccccc12 (stereo partly drawn) [4c, (2′R,3S,7a′S)-1′-(4-Chlorophenyl)-2′-(1H-indole-3-carbonyl)-1′,2′,5′,6′,7′,7a′-hexahydrospiro[indoline-3,3′-pyrrolizin]-2-one] | 8 ± 0.5 µM | 3.8 µg/mL | 2.8 | 22 µM | 165 to 167 °C | 11.8 ± 1.3 µM | 5.7 µg/mL | 1.9 | 20 ± 1.5 µM | 9.6 µg/mL | 1.1 | – | – | – | – | – | –
COc1ccc(C2[C@@H](C(=O)c3c[nH]c4ccccc34)[C@]3(C(=O)Nc4ccccc43)N3CCC[C@@H]23)cc1 (stereo partly drawn) [4e, (2′R,3S,7a′S)-2′-(1H-Indole-3-carbonyl)-1′-(4-methoxyphenyl)-1′,2′,5′,6′,7′,7a′-hexahydrospiro[indoline-3,3′-pyrrolizin]-2-one] | 17.3 ± 3 µM | 8.3 µg/mL | 1.5 | 26 µM | 122 to 124 °C | 15.5 ± 2 µM | 7.4 µg/mL | 1.7 | 26 ± 2 µM | 12.4 µg/mL | 1 | – | – | – | – | – | –
O=C(c1c[nH]c2ccccc12)[C@@H]1C(c2ccc(Br)cc2)[C@@H]2CCCN2[C@@]12C(=O)Nc1ccccc12 (stereo partly drawn) [4f, (2′R,3S,7a′S)-1′-(4-Bromophenyl)-2′-(1H-indole-3-carbonyl)-1′,2′,5′,6′,7′,7a′-hexahydrospiro[indoline-3,3′-pyrrolizin]-2-one] | 12 ± 1.5 µM | 6.3 µg/mL | 2.5 | 30 µM | 101 to 102 °C | 16.3 ± 2.5 µM | 8.6 µg/mL | 1.8 | 21 ± 1.3 µM | 11 µg/mL | 1.4 | – | – | – | – | – | –
O=C(c1c[nH]c2ccccc12)[C@@H]1C(c2ccc(F)cc2)[C@@H]2CCCN2[C@@]12C(=O)Nc1ccccc12 (stereo partly drawn) [4g, (2′R,3S,7a′S)-1′-(4-Fluorophenyl)-2′-(1H-indole-3-carbonyl)-1′,2′,5′,6′,7′,7a′-hexahydrospiro[indoline-3,3′-pyrrolizin]-2-one] | 20 ± 2 µM | 9.3 µg/mL | 2 | 40 µM | 144 to 146 °C | 16.3 ± 30 µM | 7.6 µg/mL | 2.5 | 16 ± 1 µM | 7.4 µg/mL | 2.5 | – | – | – | – | – | –
O=C(c1c[nH]c2ccccc12)[C@@H]1C(c2cccc(F)c2)[C@@H]2CCCN2[C@@]12C(=O)Nc1ccccc12 (stereo partly drawn) [4h, (2′R,3S,7a′S)-1′-(3-Fluorophenyl)-2′-(1H-indole-3-carbonyl)-1′,2′,5′,6′,7′,7a′-hexahydrospiro[indoline-3,3′-pyrrolizin]-2-one] | 14 ± 0.22 µM | 6.5 µg/mL | 1.3 | 18 µM | 149 to 151 °C | 11.5 ± 11.5 µM | 5.4 µg/mL | 1.6 | 15 ± 1.4 µM | 7 µg/mL | 1.2 | – | – | – | – | – | –
Cc1cccc(C2[C@@H](C(=O)c3c[nH]c4ccccc34)[C@]3(C(=O)Nc4ccccc43)N3CCC[C@@H]23)c1 (stereo partly drawn) [4i, (2′R,3S,7a′S)-2′-(1H-Indole-3-carbonyl)-1′-(m-tolyl)-1′,2′,5′,6′,7′,7a′-hexahydrospiro[indoline-3,3′-pyrrolizin]-2-one] | 7 ± 0.4 µM | 3.2 µg/mL | 2.1 | 15 µM | 141 to 143 °C | 7 ± 0.6 µM | 3.2 µg/mL | – | 7 ± 0.2 µM | 3.2 µg/mL | 2.1 | – | – | – | – | – | –
O=C(c1c[nH]c2ccccc12)[C@@H]1C(c2cccc(Br)c2)[C@@H]2CCCN2[C@@]12C(=O)Nc1ccccc12 (stereo partly drawn) [4j, (2′R,3S,7a′S)-1′-(3-Bromophenyl)-2′-(1H-indole-3-carbonyl)-1′,2′,5′,6′,7′,7a′-hexahydrospiro[indoline-3,3′-pyrrolizin]-2-one] | 8 ± 1 µM | 4.2 µg/mL | 2.5 | 20 µM | 110 to 112 °C | 7 ± 0.2 µM | 3.7 µg/mL | – | 9 ± 0.5 µM | 4.7 µg/mL | 2.2 | – | – | – | – | – | –
O=C(c1c[nH]c2ccccc12)[C@@H]1[C@@H](c2ccc(C(F)(F)F)cc2)[C@@H]2CCCN2[C@]12C(=O)Nc1ccccc12 [4k] | 10 ± 1.25 µM | 5.2 µg/mL | 2.2 | 22 µM | 153 to 155 °C | 9 ± 0.2 µM | 4.6 µg/mL | – | 9 ± 0.5 µM | 4.6 µg/mL | 2.4 | – | – | – | – | – | –
O=C(c1c[nH]c2ccccc12)[C@@H]1C(c2cccs2)[C@@H]2CCCN2[C@@]12C(=O)Nc1ccccc12 (stereo partly drawn) [4l, (2′R,3S,7a′S)-2′-(1H-Indole-3-carbonyl)-1′-(thiophen-2-yl)-1′,2′,5′,6′,7′,7a′-hexahydrospiro[indoline-3,3′-pyrrolizin]-2-one] | 50 ± 3 µM | 22.7 µg/mL | 1.2 | 60 µM | 157 to 159 °C | 29 ± 3 µM | 13 µg/mL | 2.1 | 50 ± 3.5 µM | 22.7 µg/mL | 1.2 | – | – | – | – | – | –
O=C(c1c[nH]c2ccccc12)[C@@H]1C(c2ccco2)[C@@H]2CCCN2[C@@]12C(=O)Nc1ccccc12 (stereo partly drawn) [4m, (2′R,3S,7a′S)-1′-(Furan-2-yl)-2′-(1H-indole-3-carbonyl)-1′,2′,5′,6′,7′,7a′-hexahydrospiro[indoline-3,3′-pyrrolizin]-2-one] | 40 ± 5 µM | 17.5 µg/mL | 1.3 | 50 µM | 172 to 174 °C | 26 ± 1.7 µM | 11.3 µg/mL | 1.9 | 29 ± 2 µM | 12.7 µg/mL | 1.7 | – | – | – | – | – | –
N.N.[Cl][Pt][Cl] [Cisplatin, cis-diamineplatinum(II) dichloride, reference compound] | – | – | – | – | – | – | – | – | – | – | – | 1.7 µg/mL | 5 µM | 1.5 µg/mL | 5 ± 0.45 µM | 3.8 µg/mL | 12.6 ± 0.4 µM
